Laboratory results: ChEMBL document CHEMBL1143855, “(2S,2'R)-analogue of LG190178 is a major active isomer” (Bioorg Med Chem Lett, 2008)

Target: T1, Vitamin D3 receptor (Homo sapiens) (UniProt P11473)
T1 sequence (whole entry): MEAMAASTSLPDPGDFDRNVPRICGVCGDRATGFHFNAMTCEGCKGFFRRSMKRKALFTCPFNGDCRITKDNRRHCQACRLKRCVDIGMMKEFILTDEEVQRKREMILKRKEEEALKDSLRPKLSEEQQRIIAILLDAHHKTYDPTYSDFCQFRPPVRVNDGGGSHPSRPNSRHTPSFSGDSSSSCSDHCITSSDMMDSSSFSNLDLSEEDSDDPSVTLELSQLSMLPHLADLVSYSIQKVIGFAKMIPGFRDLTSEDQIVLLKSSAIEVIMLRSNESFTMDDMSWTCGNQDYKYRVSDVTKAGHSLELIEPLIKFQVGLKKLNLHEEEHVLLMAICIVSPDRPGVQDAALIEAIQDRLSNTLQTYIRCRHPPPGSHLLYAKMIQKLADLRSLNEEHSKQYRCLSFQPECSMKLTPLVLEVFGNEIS
Experiment: Binding affinity to VDR relative to (1-alpha 25-(OH)2D3

Activity	Compound
28.3	CCC(CC)(c1ccc(OC[C@@H](O)CO)c(C)c1)c1ccc(OC[C@H](O)C(C)(C)C)c(C)c1
0.482	CCC(CC)(c1ccc(OC[C@H](O)CO)c(C)c1)c1ccc(OC[C@H](O)C(C)(C)C)c(C)c1
0.112	CCC(CC)(c1ccc(OC[C@H](O)CO)c(C)c1)c1ccc(OC[C@@H](O)C(C)(C)C)c(C)c1
0.831	CCC(CC)(c1ccc(OC[C@@H](O)CO)c(C)c1)c1ccc(OC[C@@H](O)C(C)(C)C)c(C)c1
